# Biological target: T1, SHP2 (Homo sapiens, UniProt Q06124)
# T1 construct: endogenous in cells; host or cells: MV 411
# T1 sequence (Q06124 1-593): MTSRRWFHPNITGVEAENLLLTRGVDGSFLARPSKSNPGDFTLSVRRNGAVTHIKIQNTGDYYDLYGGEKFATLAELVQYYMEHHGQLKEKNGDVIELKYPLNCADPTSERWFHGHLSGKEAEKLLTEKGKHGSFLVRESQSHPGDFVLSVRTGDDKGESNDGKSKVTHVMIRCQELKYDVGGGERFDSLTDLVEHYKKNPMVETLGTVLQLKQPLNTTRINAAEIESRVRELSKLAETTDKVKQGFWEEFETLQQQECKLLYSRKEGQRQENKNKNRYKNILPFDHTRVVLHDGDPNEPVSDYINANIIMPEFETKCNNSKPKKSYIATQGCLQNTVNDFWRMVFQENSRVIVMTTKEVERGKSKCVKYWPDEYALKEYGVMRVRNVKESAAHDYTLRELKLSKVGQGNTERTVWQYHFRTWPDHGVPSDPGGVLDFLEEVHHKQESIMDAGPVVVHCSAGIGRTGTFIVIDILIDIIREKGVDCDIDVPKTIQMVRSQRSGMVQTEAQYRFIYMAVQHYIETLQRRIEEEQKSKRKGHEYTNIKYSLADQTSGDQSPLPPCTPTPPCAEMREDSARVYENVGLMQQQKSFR
# Test: SHP2 degradation in MV 411 cells by Western blot (median degradation concentration)
# Assay type: cell-based
# Settings: 24 hours with compound, SHP-2 antibody Western blot, concentration of the median degradation from exposure gray scale
# From the text: Reagent: complete DMEM medium, Gibco products. Fetal bovine serum, manufactured byThermoFisher. Trypsin, manufactured byThermoFisher. The SHP-2 antibody is produced by CST. Cell line, MV 411, the blast cells of patients with bi-phenotypic B-myelomonocytic leukemia, was established by Rovera. Measuring method: took the cells growing in the logarithmic phase, collected and suspended the cells in DMEM containing 10% fetal calf serum, gently blowed and beated the cells into single cell suspension by using a pipette, and counted the living cells under a microscope. […] Then cultured for 24 hours. All cells were collected and washed with PBS, lysed with RIPA lysate and collected into a 1.7 ml tube. […] metal bath for 5 minutes to fully denature the protein. 100V constant voltage electrophoresis after Western condensation and loading, stopped when bromophenol blue band reached the end point. The cellulose acetate membrane is transferred by a wet method, 45 minutes at a constant flow of 300-500 mA, 5% BSA is used for blocking for 1-2 hours at room temperature. Primary antibody of 1:500-1:8000 were used for incubation at 25° C. for 40 minutes and then washed three times. Secondary antibody was used for incubation for 15-40 min at room temperature. The proteins were detected using ultrasensitive ECL luminophores such as […], using an X-Ray film automatic developing machine. The concentration of the median degradation was calculated by exposure gray scale.
row,DC50,SMILES
1,> 500 nM,CCOc1cc2oc(-c3ccc(OCCOCCOCCOCCOc4cccc5c4C(=O)N(C4CCC(=O)NC4=O)C5=O)cc3Cl)cc(=O)c2cc1-c1cc(C(N)=O)cc(S(=O)(=O)NC)c1 (stereo not shown) [Compound 81]
2,> 1000 nM,CCOc1cc2oc(-c3ccc(OCCOCCOCCOCCOc4cccc5c4C(=O)N(C4CCC(=O)NC4=O)C5=O)cc3Cl)cc(=O)c2cc1-c1cc(C(N)=O)cc(-c2ccccn2)c1 (stereo not shown) [Compound 56]
3,750 nM,CCOc1cc2oc(-c3ccc(OCCOCCOCCOCCOc4cccc5c4C(=O)N(C4CCC(=O)NC4=O)C5=O)cc3Cl)cc(=O)c2cc1-c1cc(C(N)=O)cc(C(F)(F)F)c1 (stereo not shown) [Compound 44]
4,> 250 nM,CCOc1cc2oc(-c3ccc(OCCOCCOCCOCCOc4cccc5c4C(=O)N(C4CCC(=O)NC4=O)C5=O)cc3Cl)cc(=O)c2cc1-c1cc(C(N)=O)cc(N(C)S(C)(=O)=O)c1 (stereo not shown) [Compound 67]
5,> 250 nM,CCOc1cc2oc(-c3ccc(OCCOCCOCCOCCOc4cccc5c4C(=O)N(C4CCC(=O)NC4=O)C5=O)cc3Cl)cc(=O)c2cc1-c1cc(C(N)=O)cc(C(=O)NC)c1 (stereo not shown) [Compound 76]
6,> 250 nM,CCOc1cc2oc(-c3ccc(OCCOCCOCCOCCOc4cccc5c4C(=O)N(C4CCC(=O)NC4=O)C5=O)cc3Cl)cc(=O)c2cc1CCC(=O)Nc1ccccc1 (stereo not shown) [Compound 72]
7,75 nM,CCOc1cc2oc(-c3ccc(NCCOCCOCCOCCOc4cccc5c4C(=O)N(C4CCC(=O)N(COC(=O)CC6CCCCC6)C4=O)C5=O)cc3Cl)cc(=O)c2cc1-c1cccc(C(C)=O)c1 (stereo not shown) [Compound 89]
8,> 250 nM,CCOc1cc2oc(-c3ccc(OCCOCCOCCOCCOc4cccc5c4C(=O)N(C4CCC(=O)NC4=O)C5=O)cc3Cl)cc(=O)c2cc1-c1cc(C(N)=O)cc(N(C)C(C)=O)c1 (stereo not shown) [Compound 65]
9,> 250 nM,CCOc1cc2oc(-c3ccc(OCCOCCOCCOCCOc4cccc5c4C(=O)N(C4CCC(=O)NC4=O)C5=O)cc3Cl)cc(=O)c2cc1-c1cc(NC)cc(C(N)=O)c1 (stereo not shown) [Compound 62]
10,5 nM,CCOc1cc2oc(-c3ccc(NCCOCCOCCOCCOc4cccc5c4C(=O)N(C4CCC(=O)NC4=O)C5=O)cc3Cl)cc(=O)c2cc1CN1CCC[C@@H]1CO (stereo partly shown) [Compound 53]
11,> 250 nM,CCOc1cc2oc(-c3ccc(OCCOCCOCCOCCOc4cccc5c4C(=O)N(C4CCC(=O)NC4=O)C5=O)cc3Cl)cc(=O)c2cc1-c1cc(NC(=O)NC)cc(C(N)=O)c1 (stereo not shown) [Compound 70]
12,> 250 nM,CCOc1cc2oc(-c3ccc(OCCOCCOCCOCCOc4cccc5c4C(=O)N(C4CCC(=O)NC4=O)C5=O)cc3Cl)cc(=O)c2cc1-c1cc(C(N)=O)cc(N(C)S(=O)(=O)c2ccccc2)c1 (stereo not shown) [Compound 69]
13,> 1000 nM,CCOc1cc2oc(-c3ccc(OCCOCCOCCOCCOc4cccc5c4C(=O)N(C4CCC(=O)NC4=O)C5=O)cc3Cl)cc(=O)c2cc1-c1cc(C(N)=O)cc(-c2ccccc2)c1 (stereo not shown) [Compound 55]

# The remaining lines, values behind:
row,SMILES,DC50
1,CCOc1cc2oc(-c3ccc(NCCOCCOCCOCCOc4cccc5c4C(=O)N(C4CCC(=O)NC4=O)C5=O)cc3Cl)cc(=O)c2cc1-c1cccc(CO)c1 (stereo not shown) [Compound 11],50 nM
2,CCOc1cc2oc(-c3ccc(OCCOCCOCCOCCOc4ccc5c(c4)C(=O)N(C4CCC(=O)NC4=O)C5=O)cc3Cl)cc(=O)c2cc1-c1cc(C(C)=O)cc(C(N)=O)c1 (stereo not shown) [Compound 35],25 nM
3,CCOc1cc2oc(-c3ccc(OCCOCCOCCOCCOc4cccc5c4C(=O)N(C4CCC(=O)NC4=O)C5=O)cc3Cl)cc(=O)c2cc1-c1cc(C)cc(C(N)=O)c1 (stereo not shown) [Compound 42],750 nM
4,CCOc1cc2oc(-c3ccc(OCCOCCOCCOCCOc4cccc5c4C(=O)N(C4CCC(=O)NC4=O)C5=O)cc3Cl)cc(=O)c2cc1-c1cccc(C(=O)OC)c1F (stereo not shown) [Compound 27],2 nM
5,CCOc1cc2oc(-c3ccc(OCCOCCOCCOCCOc4cccc5c4C(=O)N(C4CCC(=O)NC4=O)C5=O)cc3Cl)cc(=O)c2cc1-c1ccc2c(c1)COC2=O (stereo not shown) [Compound 31],300 nM
6,CCOc1cc2oc(-c3ccc(OCCOCCOCCOCCOc4cccc5c4C(=O)N(C4CCC(=O)NC4=O)C5=O)cc3Cl)cc(=O)c2cc1-c1cc(N)cc(C(=O)OC)c1 (stereo not shown) [Compound 40],750 nM
7,CCOc1cc2oc(-c3ccc(OCCOCCOCCOCCOc4cccc5c4C(=O)N(C4CCC(=O)NC4=O)C5=O)cc3Cl)cc(=O)c2cc1-c1cc(C(N)=O)cc(C(N)=O)c1 (stereo not shown) [Compound 74],2 nM
8,CCOc1cc2oc(-c3ccc(OCCOCCOCCOCCOc4cccc5c4C(=O)N(C4CCC(=O)NC4=O)C5=O)cc3Cl)cc(=O)c2cc1-c1cccc(N)c1 (stereo not shown) [Compound 26],3500 nM
9,CCOC(=O)c1cncc(-c2cc3c(=O)cc(-c4ccc(OCCOCCOCCOCCOc5cccc6c5C(=O)N(C5CCC(=O)NC5=O)C6=O)cc4Cl)oc3cc2OCC)c1 (stereo not shown) [Compound 41],1000 nM
